From patent US20250154170A1, “FUSED PYRIMIDINES AS KRAS INHIBITORS” (priority 2022, published 2025)

Tests used:
[1] = target: K-Ras G12D (Homo sapiens, UniProt P01116, G12D); assay: K-Ras G12D activation by SOS1 (KRAS G12D activation by SOS1cat assay, HTRF); type: biochemical; details: mean, SOS1cat mediated loading of GST-KRAS G12D-GDP with fluorescent GTP analogue, read-out: K-Ras G12D activation by SOS1 IC50 - [mol/l] (mean)
Procedure: (§1) Preparation of test compound dilutions. A 100-fold concentrated solution of the test compound (50 nL) in DMSO was transferred to microtiter test plates (384 or 1,536 wells, Greiner Bio-One, Germany) using either a Hummingbird liquid handler (Digilab, MA, USA) or an Echo acoustic system (Labcyte, CA, USA). Plates were sealed with adhesive foil or heat-sealed and stored at −20 C until use. Serial dilutions of test compounds were prepared in 100% DMSO using a Precision Pipetting System (BioTek, USA).
(§2) Measurement and evaluation of inhibition data, calculation of IC50 values. Homogeneous time-resolved fluorescence (HTRF) was measured with a PHERAstar reader (BMG, Germany) using the HTRF module (excitation: 337 nm; emission 1: 620 nm, emission 2: 665 nm). The ratio of the emissions at 665 and 620 nm was used as the specific signal for further evaluation. The data were normalized using the controls: DMSO=0% inhibition, inhibition control wells with inhibitor control solution=100% inhibition. Compounds were tested in duplicates at up to 11 concentrations (e.g. 20 μM, 5.7 μM, 1.6 μM, 0.47 μM, 0.13 μM, 38 nM, 11 nM, 3.1 nM, 0.89 nM, 0.25 nM and 0.073 nM). IC50 values were calculated using a four-parameter fit, with a commercial software package (Genedata Screener, Switzerland).
(§3) KRAS^G12C activation by SOS1^cat assay (“On-assay”). This assay quantifies SOS1^cat mediated loading of KRAS^G12C-GDP with a fluorescent GTP analogue. Detection of successful loading was achieved by measuring resonance energy transfer from anti-GST-terbium (FRET donor) bound to GST-KRAS^G12C to the loaded fluorescent GTP analogue (FRET acceptor). The fluorescent GTP analogue EDA-GTP-DY-647P1 [2′/3′-O-(2-aminoethyl-carbamoyl)guanosine-5′-triphosphate labelled with DY-647P1 (Dyomics GmbH, Germany)] was synthesized by Jena Bioscience (Germany) and supplied as a 1 mM aqueous solution. A KRAS^G12C working solution was prepared in assay buffer [10 mM HEPES pH 7.4 (AppliChem), 150 mM NaCl (Sigma), 5 mM MgCl2 (Sigma), 1 mM DTT (Thermo Fisher), 0.05% BSA Fraction V pH 7.0 (ICN Biomedicals), 0.0025% (v/v) Igepal (Sigma)] containing GST-KRAS^G12C (final concentration in assay 50 nM) and anti-GST-terbium (Cisbio, France) (final concentration in assay 1 nM). A SOS1^cat working solution was prepared in assay buffer containing SOS1^cat (final concentration 10 nM) and EDA-GTP-DY-647P1 (final concentration 100 nM). An inhibitor control solution was prepared in assay buffer containing EDA-GTP-DY-647P1 (final concentration 100 nM) without SOS1^cat. All steps of the assay were performed at 20° C. A volume of 3 μL of the KRAS^G12C working solution was added to all wells of the test plate using a Multidrop dispenser (Thermo LabSystems). After 15 min, 2 μL of the SOS1^ct working solution was added to all wells, except for the inhibitor control solution wells. After 30 min incubation, HTRF was measured.
(§4) G12D and Wild-type KRAS activation by SOS1cat assays. These assays quantify human SOS1^cat mediated loading of wild-type GST-KRAS^WT-GDP or GST-KRAS^G12D-GDP with a fluorescent GTP analogue. The assay was performed similarly to the KRAS^G12C activation by SOS1^cat assay with the following differences: final concentration of SOS1^cat of 60 nM and final incubation time before measurement of 10 min for KRAS^G12D assay, final concentration of SOS1^cat of 20 nM and final incubation time before measurement of 15 min for wild-type KRAS assay, respectively. GST-KRAS^G12C was replaced by GST-KRAS^WT or GST-KRAS^G12D, respectively, also at 50 nM final concentration.
KRAS^G12D activation by SOS1^cat assay (“On-assay”). This assay quantifies SOS1^cat mediated loading of KRAS^G12D-GDP with a fluorescent GTP analogue. Detection of successful loading was achieved by measuring resonance energy transfer from anti-GST-terbium (FRET donor) bound to GST-KRAS^G12D to the loaded fluorescent GTP analogue (FRET acceptor).

[2] = target: K-Ras-wildtype (Homo sapiens, UniProt P01116); assay: K-Ras-wildtype activation by SOS1 (wild-type KRAS activation by SOS1cat assay, HTRF); type: biochemical; details: mean, SOS1cat mediated loading of wild-type GST-KRAS-GDP with fluorescent GTP analogue, read-out: K-Ras-wildtype activation by SOS1 IC50 - [mol/l] (mean)
Procedure: as §1, §2, §3, §4
Wild-type KRAS activation by SOS1^cat assay. This assay quantifies human SOS1^cat mediated loading of wild-type GST-KRAS-GDP with a fluorescent GTP analogue. The assay was performed similarly to the KRAS^G12D activation by SOS1^cat assay just by replacement of GST-KRAS^G12D by wild-type GST-KRAS while concentrations of all components and incubation times were the same.

Chain of K-Ras-wildtype (P01116 1-188 isoform P01116-2): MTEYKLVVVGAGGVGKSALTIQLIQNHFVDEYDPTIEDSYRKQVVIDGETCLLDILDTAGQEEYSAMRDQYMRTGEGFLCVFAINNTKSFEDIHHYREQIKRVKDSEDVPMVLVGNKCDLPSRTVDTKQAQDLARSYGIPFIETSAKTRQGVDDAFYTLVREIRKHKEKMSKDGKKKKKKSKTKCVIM
Chain of K-Ras G12D (P01116 1-188 isoform P01116-2 G12D): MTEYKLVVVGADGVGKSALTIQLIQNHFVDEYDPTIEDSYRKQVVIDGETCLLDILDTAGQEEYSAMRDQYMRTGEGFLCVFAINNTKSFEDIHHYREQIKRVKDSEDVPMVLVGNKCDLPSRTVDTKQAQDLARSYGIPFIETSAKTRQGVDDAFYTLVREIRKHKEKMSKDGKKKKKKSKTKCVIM

Row | Structure (SMILES) | IC50 [1] [nM] | IC50 [2] [nM]
1 | Cn1c(Oc2cc(O)cc3cccc(F)c23)nc2c(N3CC4CCC(C3)N4)nc(OCC34CCCN3CCC4)nc21 [Example 8, 4-({6-(3,8-diazabicyclo[3.2.1]octan-3-yl)-9-methyl-2-[(tetrahydro-1H-pyrrolizin-7a(5H)-yl)methoxy]-9H-purin-8-yl}oxy)-5-fluoronaphthalen-2-ol] | > 20000 | > 20000
2 | Cn1c(Oc2cc(O)cc3ccccc23)nc2c(N3CC4CCC(C3)N4)nc(OCC34CCCN3CCC4)nc21 [Example 9, 4-({6-(3,8-diazabicyclo[3.2.1]octan-3-yl)-9-methyl-2-[(tetrahydro-1H-pyrrolizin-7a(5H)-yl)methoxy]-9H-purin-8-yl}oxy)naphthalen-2-ol] | > 20000 | > 20000
3 | Oc1cc(Oc2nc3c(N4CC5CCC(C4)N5)nc(OCC45CCCN4CCC5)nc3[nH]2)c2ccccc2c1 [Example 10, 4-({6-(3,8-diazabicyclo[3.2.1]octan-3-yl)-2-[(tetrahydro-1H-pyrrolizin-7a(5H)-yl)methoxy]-9H-purin-8-yl}oxy)naphthalen-2-ol] | > 20000 | > 20000
4 | Oc1cc(Oc2nc3c(N4CC5CCC(C4)N5)nc(OCC45CCCN4CCC5)nc3[nH]2)c2c(F)cccc2c1 [Example 11, 4-({6-(3,8-diazabicyclo[3.2.1]octan-3-yl)-2-[(tetrahydro-1H-pyrrolizin-7a(5H)-yl)methoxy]-9H-purin-8-yl}oxy)-5-fluoronaphthalen-2-ol] | > 20000 | > 20000
5 | C#Cc1c(F)ccc2cc(O)cc(Oc3nc4c(N5CC6COCC(C5)N6)nc(OC[C@@]56CCCN5C[C@H](F)C6)nc4s3)c12 [Example 12, 5-ethynyl-6-fluoro-4-{[5-{[(2R,7aS)-2-fluorotetrahydro-1H-pyrrolizin-7a(5H)-yl]methoxy}-7-(3-oxa-7,9-diazabicyclo[3.3.1]nonan-7-yl)[1,3]thiazolo[5,4-d]pyrimidin-2-yl]oxy}naphthalen-2-ol] | 23.7 | 15.8
6 | C#Cc1c(F)ccc2cc(O)cc(Oc3nc4c(N5CC6COCC(C5)N6)nc(OCC56CCCN5CCC6)nc4s3)c12 [Example 13, 5-ethynyl-6-fluoro-4-({7-(3-oxa-7,9-diazabicyclo[3.3.1]nonan-7-yl)-5-[(tetrahydro-1H-pyrrolizin-7a(5H)-yl)methoxy][1,3]thiazolo[5,4-d]pyrimidin-2-yl}oxy)naphthalen-2-ol] | 25.6 | 15.3
7 | Oc1cc(Cc2nc3c(N4CC5CCC(C4)N5)nc(OCC45CCCN4CCC5)nc3s2)c2c(F)cccc2c1 [Example 14, 4-({7-(3,8-diazabicyclo[3.2.1]octan-3-yl)-5-[(tetrahydro-1H-pyrrolizin-7a(5H)-yl)methoxy][1,3]thiazolo[5,4-d]pyrimidin-2-yl}methyl)-5-fluoronaphthalen-2-ol] | 635 | > 20000
8 | Oc1cc(Oc2nc3c(N4CC5CCC(C4)N5)nc(OCC45CCCN4CCC5)nc3s2)c2c(Cl)cccc2c1 [Example 15, Formic acid-5-Chlor-4-{[7-(3,8-diazabicyclo[3.2.1]octan-3-yl)-5-(tetrahydro-1H-pyrrolizin-7a(5H)-ylmethoxy)[1,3]thiazolo[5,4-d]pyrimidin-2-yl]oxy}-2-naphthol (2:1)] | 35.3 | 1070
9 | C=Cc1c(F)ccc2cc(O)cc(Oc3nc4c(N5CC6CCC(C5)N6)nc(OC[C@@]56CCCN5C[C@H](F)C6)nc4s3)c12 [Example 17, 4-{[7-(3,8-diazabicyclo[3.2.1]octan-3-yl)-5-{[(2R,7aS)-2-fluorotetrahydro-1H-pyrrolizin-7a(5H)-yl]methoxy}[1,3]thiazolo[5,4-d]pyrimidin-2-yl]oxy}-5-ethenyl-6-fluoronaphthalen-2-ol] | 13.4 | 425
10 | Cn1c(Oc2cc(O)cc3ccccc23)nc2nc(OCC34CCCN3CCC4)nc(N3CC4CCC(C3)N4)c21 [Example 18, 4-({6-(3,8-diazabicyclo[3.2.1]octan-3-yl)-7-methyl-2-[(tetrahydro-1H-pyrrolizin-7a(5H)-yl)methoxy]-7H-purin-8-yl}oxy)naphthalen-2-ol] | 15300 | > 20000
11 | C#Cc1c(F)ccc2cc(O)cc(Oc3nc4c(N5CC6COCC(C5)N6)nc(OC[C@@]56CCCN5C[C@H](F)C6)nc4s3)c12 [Example 19, 5-ethynyl-6-fluoro-4-{[5-{[(2R,7aS)-2-fluorotetrahydro-1H-pyrrolizin-7a(5H)-yl]methoxy}-7-(3-oxa-7,9-diazabicyclo[3.3.1]nonan-7-yl)[1,3]thiazolo[5,4-d]pyrimidin-2-yl]oxy}naphthalen-2-ol] | 14.3 | 10.7
12 | C#Cc1c(F)ccc2cc(O)cc(Oc3nc4nc(OCC56CCCN5CCC6)nc(N5CC6CCC(C5)N6)c4n3C)c12 [Example 22, 4-({6-(3,8-diazabicyclo[3.2.1]octan-3-yl)-7-methyl-2-[(tetrahydro-1H-pyrrolizin-7a(5H)-yl)methoxy]-7H-purin-8-yl}oxy)-5-ethynyl-6-fluoronaphthalen-2-ol] | 89.5 | > 20000
13 | C#Cc1c(Cl)ccc2cc(O)cc(Oc3nc4c(N5CC6CCC(C5)N6)nc(OC[C@@]56CCCN5C[C@H](F)C6)nc4s3)c12 [Example 23, 6-chloro-4-{[7-(3,8-diazabicyclo[3.2.1]octan-3-yl)-5-{[(2R,7aS)-2-fluorotetrahydro-1H-pyrrolizin-7a(5H)-yl]methoxy}[1,3]thiazolo[5,4-d]pyrimidin-2-yl]oxy}-5-ethynylnaphthalen-2-ol] | 4.9 | 95
14 | Oc1cc(Nc2nc3c(N4CC5CCC(C4)N5)nc(OC[C@@]45CCCN4C[C@H](F)C5)nc3s2)c2ccccc2c1 [Example 28, 4-{[7-(3,8-diazabicyclo[3.2.1]octan-3-yl)-5-{[(2R,7aS)-2-fluorotetrahydro-1H-pyrrolizin-7a(5H)-yl]methoxy}[1,3]thiazolo[5,4-d]pyrimidin-2-yl]amino}naphthalen-2-ol] | 1410 | > 20000
15 | CN(c1nc2c(N3CC4CCC(C3)N4)nc(OC[C@@]34CCCN3C[C@H](F)C4)nc2s1)c1cc(O)cc2ccccc12 [Example 29, 4-{[7-(3,8-diazabicyclo[3.2.1]octan-3-yl)-5-{[(2R,7aS)-2-fluorotetrahydro-1H-pyrrolizin-7a(5H)-yl]methoxy}[1,3]thiazolo[5,4-d]pyrimidin-2-yl](methyl)amino}naphthalen-2-ol] | 284 | 11900
16 | Oc1cc(Nc2nc3c(N4CC5COCC(C4)N5)nc(OC[C@@]45CCCN4C[C@H](F)C5)nc3s2)c2ccccc2c1 [Example 30, 4-{[5-{[(2R,7aS)-2-fluorotetrahydro-1H-pyrrolizin-7a(5H)-yl]methoxy}-7-(3-oxa-7,9-diazabicyclo[3.3.1]nonan-7-yl) [1,3]thiazolo[5,4-d]pyrimidin-2-yl]amino}-2-naphthol] | 10600 | 7610
